# Data published in US20040138203A1, “Bicyclic lactams and sulfonamides with 5-ht1a -affinity and use thereof for preventing and treating cerebral ischaemia” (priority 2000, published 2004).
# Biological target: T1, cloned human 5-HT1A receptors (Homo sapiens, UniProt P08908)
# T1 construct: expressed in transfected cells; host or cells: HEK293 cells, kept under G-418 selection; membranes used
# T1 sequence (P08908 1-422): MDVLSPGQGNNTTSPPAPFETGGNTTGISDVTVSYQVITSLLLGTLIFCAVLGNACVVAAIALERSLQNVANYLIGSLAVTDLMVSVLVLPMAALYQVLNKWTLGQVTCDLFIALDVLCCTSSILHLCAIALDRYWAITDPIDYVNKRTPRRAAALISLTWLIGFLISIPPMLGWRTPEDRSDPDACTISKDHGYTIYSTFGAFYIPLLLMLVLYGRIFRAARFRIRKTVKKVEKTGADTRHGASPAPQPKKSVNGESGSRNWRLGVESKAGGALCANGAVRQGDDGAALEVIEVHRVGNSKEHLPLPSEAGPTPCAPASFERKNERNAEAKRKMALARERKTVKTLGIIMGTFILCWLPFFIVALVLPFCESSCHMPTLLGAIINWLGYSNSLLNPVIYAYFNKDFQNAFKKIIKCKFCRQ
# Experiment: 5-HT1A binding assay using membranes from 5-HT1A receptor-expressing HEK293 cells (3H-8-OH-DPAT displacement)
# Conditions: 3H-8-OH-DPAT 0.15 nM, HEK293 cell membranes, 90 min at 22° C.
# Protocol: The following test arrangement was used for determining the receptor binding affinity:
# 5-HT1A binding assay using membranes from 5-HT1A receptor-expressing HEK293 cells
# Culturing 5-HT1A receptor-expressing HEK293 cells 5-HT1A-expressing HEK293 cells are cultured, at 37° C. and in a 5% CO2 atmosphere, in RPMI/Glutamax medium (RPMI 1640, 25 mM Hepes, 2 mM Glutamax, 10% FCS, 2 mM glutamine, penicillin/streptomycin (100 IU/ml each), geneticin G-418 sulfate, 400 mg/l, NaHCO3, 1.2 g/l) in culture flasks (T-175 triple flasks). After confluence has been reached, the medium is removed and the flasks are filled with 15 ml of sterile PBS (phosphate-buffered saline). The cells are detached by incubating them for 10 minutes (incubator, 37° C.) with a trypsin solution (0.05% trypsin, 0.0004% EDTA, 0.02% EGTA, 2.682 mM KCl, 1.47 mM KH2PO4, 6.46 mM NaHPO4, 136.89 mM NaCl). The detachment of the cells is promoted by knocking on the bottom of the flask. After having been transferred into 50 ml tubes (Greiner), the cells are centrifuged at 250×g at room temperature. The supernatant is discarded and the cells are resuspended in 10 ml of medium. The cells are aliquoted once again into culture flasks and cultured for a further 5 to 6 days until the membranes are prepared.
# Preparing the Membranes from 5-HT1A Receptor-Expressing HEK293 Cells
# The supernatants are removed from the cells and the culture flasks are filled with PBS. The cells are then incubated for 10 minutes with a trypsin solution (for composition see above). The detachment of the cells is promoted by knocking on the bottom of the flask. The cell suspension is removed and the remaining cells are likewise taken up in PBS by washing the culture flasks twice with PBS. The combined cell suspension is aliquoted into […] and centrifuged at 250×g and 4° C. for 10 minutes. The supernatants are discarded and the cells in the pellet are resuspended in PBS. 20 μl of the cell suspension are removed and the cell density is determined. The cells are centrifuged once again at 250×g (4° C.) for 10 minutes, after which the supernatant is discarded and the cells in the pellet are homogenized in 50 mM tris-HCl, pH 7.4 (1 ml/10^8 cells) using an Ultra-Turrax (30 sec).
# The homogenate is aliquoted into cryotubes (1 ml/cryotube) and stored in liquid nitrogen until used in the binding assay.
# The frozen membranes are thawed at 37° C., after which they are centrifuged at 48000*g (20 minutes) and then resuspended in binding buffer (50 mM Tris-HCl, pH 7.4, 5 mM CaCl2). An incubation assay mixture contains membrane material from […], 0.15 pmol (=0.15 nM) of 3H-8-OH-DPAT, and the substances to be tested, in a total of 1 ml of binding buffer. Nonspecific binding is determined in the presence of 10^−5 M 5-carboxamidotryptamine. Following a 90-minute incubation at 22° C., bound and free ligand are separated from each other by filtering through […] and subsequently washing with from 5 to 9 ml of ice-cold binding buffer. Before use, the GF/B filters are treated for at least 2 hours with 0.3% polyethylenimine. Following filtration, from 3 to 4 ml of Packard Ultima Gold XR are added to the filters and the radioactivity is determined by liquid scintillation counting in a Packard Tricarb.
# Evaluating the Data from the 5-HT1A Binding Assay
# The displacement curves are analyzed by nonlinear regression using a modified version of the “Ligand” program of Munson & Rodbard (Anal. Biochem., 107, 220 (1980)). The value of the theoretical nonspecific binding is assessed to be the theoretical binding of radioligand at infinitely high ligand concentration. In this connection, the measured values for the nonspecific binding are treated as data points of the displacement curve which correspond to experimental points at an infinitely high ligand concentration. […]
row,Compound,Ki [nM]
1,"Cc1cccc(N2CCN(CCN3Cc4ccccc4C3=O)CC2)n1 [Example 4, 2-[2-(4-(6-Methyl-2-pyridinyl)-1-piperazinyl)-ethyl]-1-isoindolinone]",2.6
2,"O=C1c2ccccc2CN1CCN1CCN(c2nccc3ccccc23)CC1 [Example 22, 2-[2-(4-(1-Isoquinolinyl)-1-piperazinyl)ethyl]-1-isoindolinone]",5.4
3,"O=C1CCc2ccccc2N1CCN1CCN(c2nccc3ccccc23)CC1 [Example 6, 1-[2-(4-(1-Isoquinolinyl)-1-piperazinyl)-ethyl]-3,4-dihydro-2(1H)-quinolinone]",4.1
4,"O=c1c2ccccc2ccn1CCN1CCN(c2nccc3ccccc23)CC1 [Example 2, 2-[2-(4-(1-Isoquinolinyl)-1-piperazinyl)-ethyl]-1(2H)-isoquinolinone]",0.6
5,"O=C1c2ccccc2CCN1CCN1CCN(c2nccc3ccccc23)CC1 [Example 1, 2-[2-(4-(1-Isoquinolinyl)-1-piperazinyl)ethyl]-3,4-dihydro-1(2H)-isoquinolinone]",0.6
6,"O=S1(=O)c2ccccc2CN1CCN1CCN(c2nccc3ccccc23)CC1 [Example 3, 2-[2-(4-(1-Isoquinolinyl)-1-piperazinyl)-ethyl]-2,3-dihydro-1,2-benzisothiazole 1,1-dioxide]",1.6
7,"O=S1(=O)c2ccccc2CN1CCN1CCN(c2cccc(C(F)(F)F)c2)CC1 [Example 13, 2-[2-(4-(3-Trifluoromethylphenyl)-1-piperazinyl)ethyl]-2,3-dihydro-1,2-benzisothiazole 1,1-dioxide]",1
8,"O=S1(=O)c2ccccc2CN1CCN1CCN(c2cccc3ccccc23)CC1 [Example 8, 2-[2-(4-(1-Naphthyl)-1-piperazinyl)ethyl]-2,3-dihydro-1,2-benzisothiazole 1,1-dioxide]",0.1
9,"O=C1Cc2ccccc2N1CCN1CCN(c2cccc(C(F)(F)F)c2)CC1 [Example 5, 1-[2-(4-(3-Trifluoromethylphenyl)-1-piperazinyl)ethyl]-1,3-dihydro-2H-indol-2-one]",2.9
10,"Cc1cccc(N2CCN(CCN3Cc4ccccc4S3(=O)=O)CC2)n1 [Example 10, 2-[2-(4-(6-Methyl-2-pyridinyl)-1-piperazinyl)ethyl]-2,3-dihydro-1,2-benzisothiazole 1,1-dioxide]",0.5
11,"O=C1Cc2ccccc2N1CCN1CCN(c2nccc3ccccc23)CC1 [Example 19, 1-[2-(4-(1-Isoquinolinyl)-1-piperazinyl)ethyl]-1,3-dihydro-2H-indol-2-one]",0.7
12,"O=c1ccc2ccccc2n1CCN1CCN(c2nccc3ccccc23)CC1 [Example 7, 1-[2-(4-(1-Isoquinolinyl)-1-piperazinyl)-ethyl]-2(1H)-quinolinone]",2.4
